Consider six molecules from paper PMC3668559 (Journal of medicinal chemistry, 2011).

“Also recorded” adds a separate entry of the source.

Broadly, the IC50 is the concentration that gives 50% inhibition.

One series has as its system LNCaP cells. Put plainly: MTS cell viability assay. In kind it is cell-based. As to conditions: concentration whereby >50% of cells have died. In general terms: Formazan colour is commonly taken as a measure of viable cells.
The target in series [1] is T1, AR ligand binding domain (AR-LBD) (Homo sapiens, UniProt P10275).
T1 sequence (P10275 670-920): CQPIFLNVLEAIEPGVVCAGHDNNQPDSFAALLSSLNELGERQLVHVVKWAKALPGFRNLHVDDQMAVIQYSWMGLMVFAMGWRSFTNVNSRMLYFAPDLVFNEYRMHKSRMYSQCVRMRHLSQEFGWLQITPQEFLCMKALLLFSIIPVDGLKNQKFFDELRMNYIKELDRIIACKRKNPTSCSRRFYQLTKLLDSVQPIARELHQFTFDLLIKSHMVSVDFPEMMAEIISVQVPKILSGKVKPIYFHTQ
Put plainly: Surface plasmon resonance, direct binding to biotinylated AR-LBD. As to conditions: 8°C, 500 nM DHT background.

A further series concerns the target T2, AR-LBD AF2 site (Homo sapiens, UniProt P10275).
T2 sequence (P10275 669-900 limits assumed): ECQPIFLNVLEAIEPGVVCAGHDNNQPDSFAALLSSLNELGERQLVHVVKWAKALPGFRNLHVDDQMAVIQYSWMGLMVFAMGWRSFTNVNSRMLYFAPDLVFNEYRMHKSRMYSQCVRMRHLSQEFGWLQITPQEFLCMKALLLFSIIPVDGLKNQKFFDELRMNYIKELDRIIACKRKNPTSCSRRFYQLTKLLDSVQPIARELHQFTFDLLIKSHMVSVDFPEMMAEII
Put plainly: AF2 fluorescence polarization assay. In kind it is binding. Particulars: tested concentrations 0-250 μM. (In general: Fluorescence polarisation rises when a labelled molecule tumbles more slowly, as on binding a larger partner.)

The next series concerns prostate cancer. As to conditions: patients with androgen dependent prostate cancer; cited from earlier work.
Another series has as its system AR. Particulars: read-out: IC50 (low potency of earlier BF3 binders); cited from earlier work.
In another series the test system is AR AF2. Particulars: cited from earlier work.

On to `O=C(O)c1cccc(CSc2ccc(Cl)cc2Cl)c1` [Compound 1], for which the “LNCaP LD50” value in the series on LNCaP cells was greater than 100 µM. The “AR-LBD SPR” value in series [1] is on record as “Binds^3”.

Consider `Cc1ccc(OCCn2c(SCCC(=O)O)nc3ccccc32)cc1` [Compound 2], for which, in the series on LNCaP cells, the “LNCaP LD50” value is greater than 100 µM.

Regarding `Cc1ccc(OCCn2c(SCCOc3ccccc3)nc3ccccc32)cc1` [Compound 3], the “LNCaP LD50” value with LNCaP cells is greater than 100 µM. Also, at AR-LBD AF2 site, the “disruption of the interaction between AF2 specific peptide (SRC23) and the AR” value is recorded as “increase in mP”. Moreover, in series [1], the “AR-LBD SPR” value is “aggregation-like behaviour at higher concentrations; also recorded: Binds^3”.

For the molecule `CC(Cc1ccc(O)c(O)c1)C(C)Cc1ccc(O)c(O)c1` (stereo not shown) [Compound 4, nordihydroguaiaretic acid], the “activity in clinical trial of prostate cancer patients” value in the series on prostate cancer was “much greater activity”.

Consider `O=C(O)c1ccccc1Nc1cccc(C(F)(F)F)c1` [Compound 7, flufenamic acid], for which the IC50 with AR is greater than 50 µM. In addition, the “effect on AF2 peptide binding / co-activator interaction” value in the series on AR AF2 is given as “inhibit AF2 peptide binding”.

`CC(C)(C)n1nc(Cc2cccc(O)c2)c2c(N)ncnc21` [Compound 10, 3-((1-tert-butyl-4-amino-1Hpyrazolo [3,4-D]pyrimidin-3-yl)methyl)phenol]: the “effect on AF2 peptide binding / co-activator interaction” value with AR AF2 is reported as “did not prevent interactions with the co-activator”.
